Values after ≈ are worked out from the molar mass of the structure shown. Read-outs that look alike come from different tables or passages of the source.

In one data set the test system is rat MAGL. As to conditions: cited from earlier work.
The next data set addresses T1, mMAGL (Mus musculus, UniProt O35678).
T1 sequence (O35678 1-303): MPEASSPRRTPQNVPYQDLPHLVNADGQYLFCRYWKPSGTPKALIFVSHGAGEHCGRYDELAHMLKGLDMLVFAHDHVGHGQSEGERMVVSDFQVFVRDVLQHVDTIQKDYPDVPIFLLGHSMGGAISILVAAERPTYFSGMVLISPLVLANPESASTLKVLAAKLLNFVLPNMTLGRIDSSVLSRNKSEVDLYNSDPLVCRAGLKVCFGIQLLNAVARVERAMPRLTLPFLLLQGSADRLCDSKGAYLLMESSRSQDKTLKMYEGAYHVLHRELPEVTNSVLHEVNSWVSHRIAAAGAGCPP
The data set can be described thus: Native MS (RapidFire) 2-AG substrate assay, purified mouse MAGL. The settings on record: purified mouse MAGL, native MS substrate assay; read-out: IC50 mMAGL. In kind it is biochemical. Here is the method:
(§1) In vitro MAGL Inhibition Assay
(§2) Compounds were profiled for MAGL inhibitory activity by determining the enzymatic activity by following the hydrolysis of the natural substrate 2-arachidonoylglycerol (2-AG), resulting in arachidonic acid, which can be followed by mass spectrometry. The 2-AG assay was carried out in 384 well assay plates (PP, Greiner Cat# 784201) in a total volume of 20 µL. Compound dilutions were made in 100% DMSO (VWR Chemicals 23500.297) in a polypropylene plate in 3-fold dilution steps to give a final concentration range in the assay from 12.5 µM to 0.8 pM. 0.25µL compound dilutions (100% DMSO) were added to 9 µL MAGL in assay buffer (50 mM TRIS (GIBCO, 15567-027), 1 mM EDTA (Fluka, 03690-100 mL), 0.01% (v/v) Tween. After shaking, the plate was incubated for 15 min at RT. To start the reaction, 10 µL 2-arachidonoylglycerol in assay buffer was added. The final concentrations in the assay were 50 pM MAGL and 8 µM 2-arachidonoylglyerol. After shaking and 30 min incubation at RT, the reaction was quenched by the addition of 40µL of ACN containing 4µM of d8-arachidonic acid. The amount of arachidonic acid was traced by an online SPE system (Agilent Rapidfire) coupled to a triple quadrupole mass spectrometer (Agilent 6460). A C18 SPE cartridge (G9205A) was used in an ACN/water liquid setup. The mass spectrometer was operated in negative electrospray mode following the mass transitions 303.1 → 259.1 for arachidonic acid and 311.1 → 267.0 for d8-arachidonic acid. The activity of the compounds was calculated based on the ratio of intensities [arachidonic acid / d8-arachidonic acid]. The lowest IC50 value that can be determined with high accuracy is approximately 0.025 nM.

The target in another data set is T2, cMAGL (Macaca fascicularis, UniProt A0A2K5V664).
T2 sequence (A0A2K5V664 11-297): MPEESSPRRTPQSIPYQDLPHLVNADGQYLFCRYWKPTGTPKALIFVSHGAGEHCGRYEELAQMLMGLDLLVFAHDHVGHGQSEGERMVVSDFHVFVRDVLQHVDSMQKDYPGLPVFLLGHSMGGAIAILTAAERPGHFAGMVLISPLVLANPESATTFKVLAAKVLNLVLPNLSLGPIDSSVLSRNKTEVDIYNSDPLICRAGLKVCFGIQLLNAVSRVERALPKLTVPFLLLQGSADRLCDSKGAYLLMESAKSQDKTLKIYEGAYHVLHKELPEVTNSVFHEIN
The data set can be described thus: Native MS (RapidFire) 2-AG substrate assay, purified cynomolgus monkey MAGL. Format: biochemical. As to conditions: purified cynomolgus monkey MAGL, native MS substrate assay; read-out: IC50 cMAGL. Here is the method: as §1, §2

In data set [1] the test system is serine hydrolases in the mouse brain proteome (MBP). The data set can be described thus: Multiplex ABPP in mouse brain proteome. Format: biochemical. The method, then: K = [L][P] = 0.5 [L]T (FP50 − 0.5 [L]T) = FP − 0.5 [L] […]
Mouse brain sample preparation
Mouse tissues were isolated according to guidelines approved by the ethical committee of Leiden University. Male mouse brain (27 weeks old) was homogenized with glass beads (2x 1 min, bullet blender, speed 8) using cold lysis buffer (20 mM Hepes pH 7.2, 1 mM MgCl 2, 2 U/mL Benzonase). The membrane and cytosol were separated by centrifugation. The membrane fraction was resuspended in Hepes/DTT buffer. Protein concentration was determined with Bradford Assay, and samples were diluted to a final concentration of 2.0 mg/mL. Samples were snap -frozen in liquid nitrogen and stored at -80 °C until further use.
Lysate (19 µL, 2 µg/µL) was thawed on ice. For comparative ABPP (irreversible probes), 1 µL of probe (20x stock in DMSO) or pure DMSO was added to the sample, vortexed briefly, and in cubated for 30 minutes at RT. For competitive ABPP (reversible probes), 0.5 µL of the reversible probe (40x stock in DMSO) or pure DMSO (as vehicle) was added to the sample, vortexed briefly, and incubated for 30 […]
minutes at RT. Subsequently, 0.5 µL MB064 (40x stock in DMSO) was added to the proteome sample, vortexed briefly, and incubated for 10 minutes at RT, after which 0.5 µL FP-Bodipy-FL (40x stock in DMSO) was added, vortexed briefly and incubated for 10 minutes at RT. The final volume was 20 - 20.5 µL (5 - 7.5% DMSO). The reaction was quenched by the addition of 7.5 µL of 4*Laemmli-buffer (final concentrations: 60 mM Tris (pH 6.8), 2% (w/v) SDS, 10% (v/v) glycerol, 1.25% (v/v) β-mercaptoethanol, 0.01% (v/v) bromophenol blue). 10 µL (14 µg protein) of the quenched reaction mixture was resolved on 10% acrylamide SDS-PAGE (180 V, 75 min). Fluorescence was measured using a Biorad ChemiDoc MP system (fluorescence channels Cy2, Cy3, Cy5). Gels were then stained using coomassie staining and imaged for protein loading control. Labeling of the respective proteins via MB064 and FP-BODIPY was visualized in two separate channels. […]
Activity based protein profiling (ABPP)
PBMCs were thawed, washed with 1 x PBS and equal amounts of cells were exposed to DMSO (D2650; Sigma-Aldrich) or MAGL inhibitor PF (PF-06795071) in DMSO for 30 min at room temperature with concentrations ranging from 1 nM to 1000 nM. Cells were washed with 1 x PBS and lysed in ice -cold lysis buffer (ab156035; Abcam), lysates were centrifuged at 14,000 x g for 15 minutes at 4°C and supernatants were collected. For ABPP experiments, cell lysates containing equal amounts of protein were incubated with the appropriate concentration of activity -based probe for 30 min at room temperature. The reaction was quenched for 30 min by adding SDS -PAGE loading buffer (NP0007, Thermo). Samples were then separated by SDS-PAGE and bands were detected ChemiDoc Imager (Bio-Rad Laboratories). Following detection, gels were stained with SimplyBlue™ SafeStain (LC6060, Thermo) for 1 hour with gentle agitation and excess stain was removed by destaining in ddH2O for 1 h with gentle agitation. Gels were imaged and protein bands were quantified using Image Lab software (Bio-Rad Laboratories).

Data set [2] in a line: High throughput kinetic solubility measurement. As to conditions: phosphate buffer, pH 6.5, aqueous buffer, kinetic from dmso stock. Format: physicochemical.
The next data set has as its target T3, rMAGL (Rattus norvegicus, UniProt Q8R431).
T3 sequence (Q8R431 1-303): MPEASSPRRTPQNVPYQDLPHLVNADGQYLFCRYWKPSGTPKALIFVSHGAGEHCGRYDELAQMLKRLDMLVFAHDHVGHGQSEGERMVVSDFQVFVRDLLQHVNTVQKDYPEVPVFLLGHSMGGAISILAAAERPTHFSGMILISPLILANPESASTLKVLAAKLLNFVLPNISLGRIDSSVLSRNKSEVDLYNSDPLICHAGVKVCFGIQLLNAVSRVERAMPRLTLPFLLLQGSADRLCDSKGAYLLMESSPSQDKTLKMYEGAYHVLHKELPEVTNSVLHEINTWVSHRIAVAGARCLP
Put plainly: Native MS (RapidFire) 2-AG substrate assay, purified rat MAGL. The settings on record: for loss of potency against rat or cynomolgus monkey orthologs: rat or cynomolgus monkey MAGL. Format: biochemical. The method, then: as §1, §2

Data set [3] addresses T4, MAGL (Homo sapiens, UniProt Q99685).
T4 sequence (Q99685 1-303): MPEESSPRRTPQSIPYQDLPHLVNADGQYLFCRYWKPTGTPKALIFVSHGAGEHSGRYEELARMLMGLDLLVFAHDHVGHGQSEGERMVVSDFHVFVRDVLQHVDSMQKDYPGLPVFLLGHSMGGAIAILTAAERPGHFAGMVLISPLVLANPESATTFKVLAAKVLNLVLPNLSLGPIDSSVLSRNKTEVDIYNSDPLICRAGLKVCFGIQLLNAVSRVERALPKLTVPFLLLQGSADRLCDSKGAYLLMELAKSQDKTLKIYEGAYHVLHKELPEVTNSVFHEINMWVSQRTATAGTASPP
Put plainly: Native MS (RapidFire) 2-AG substrate assay, purified human MAGL. In kind it is biochemical. The settings on record: purified human MAGL, native MS substrate assay; IC50 of covalent inhibitors time-dependent; read-out: IC50 hMAGL. The method, then:
as §1, §2

In data set [4] the target is T4, MAGL. On the set-up: method as in earlier work. As to conditions: Table S2, literature compounds; ref (1), (6)-(12) as indicated per compound; cited from earlier work.
The target of data set [5] is T5, NanoLuc luciferase MAGL fusion protein (Homo sapiens, UniProt Q99685).
T5 sequence (Q99685 1-303): T4 sequence (Q99685 1-303)
The data set can be described thus: Cellular MAGL NanoBRET target engagement assay in live HEK293 cells. As to conditions: live HEK293 cells; read-out: IC50 nanoBRET. Format: cell-based. The method, then: This assay was performed as first described before.20
Compounds were profiled by a novel cellular MAGL NanoBRET™ Target Engagement assay, which measures the apparent affinity of test compounds by competitive displacement of a Roche -developed Tracer (WO2021058443, Example 2 121, or probe 4a, respectively), reversibly bound to a NanoLuc ® luciferase MAGL fusion protein in cells.
A HEK293A stable cell line expressing NanoLuc_MAGL was established at Roche and assigned as HEK293A_NanoLuc_MAGL clone #43. A fixed concentration of tracer is added to cells expressing the NanoLuc®_MAGL fusion protein to generate a BRET reporter complex. The introduction of competing compounds results in a dose -dependent decrease in NanoBRET™ energy transfer, which allows quantification of the intracellular affinity of the target protein for the test compound.
HEK293A_NanoLuc_MAGL clone #43 cells were cultured in DMEM (Gibco 31966) with 10% FBS and 800 ug/ml G418. The NanoBRET assay was performed by seeding 5000 cells/well in Costar low - volume white 384-well plate in assay buffer (1% FBS in HBSS), followed by adding the tracer (50 nM Example 21 or 100 nM 4a final concentration) and serial dilutions of test compounds. After 2 hours of incubation, Nanoluciferase substrates and extracellular inhibitors were added following the manufacturer's protocol (Promega, #N2520), and the NanoBRET signaling were quantified with the Paradigm (Molecular Devices).
(In general: In BRET a luciferase serves as donor, and the signal depends on an acceptor being close.)

The mark [6] stands for this setting: purified rat MAGL, native MS substrate assay, read-out: IC50 rMAGL.

In the case of `O=C(Oc1ccc([N+](=O)[O-])cc1)N1CCC(C(O)(c2ccc3c(c2)OCO3)c2ccc3c(c2)OCO3)CC1` [JZL-184], the “potency on rat MAGL” value with rat MAGL was “severely reduced potency”.

In the case of `O=C(N1CC2(CC(CC3=C4C=CC(c5ccc[nH]5)=[N+]4[B-](F)(F)n4cccc43)C2)C1)N1CC2(CC(n3cnc(C4CC4)n3)C2)C1` [Compound 5a], the 50% inhibitory concentration (IC50) on mMAGL was determined as 0.9 nM; on cMAGL, 0.77 nM; at rMAGL (setting [6]), 2.23 nM; on MAGL [3], 0.73 nM. Moreover, the “selectivity in competitive ABPP (reversible probes)” value in [1] (mouse brain proteome, membrane and cytosolic fraction, 1 μM) is “no other potential off-target detectable”. Moreover, the solubility (kinetic) in data set [2] was less than 0.1 µg/mL. The “loss of potency against rat or cynomolgus monkey orthologs” value at rMAGL is listed as “less than 4 fold”.

For the compound `O=C(O[C@H](CO)C(F)(F)F)N1CC2(CC(CC3=C4C=CC(c5ccc[nH]5)=[N+]4[B-](F)(F)n4cccc43)C2)C1` [Compound 1a], the concentration for half-maximal inhibition (IC50) on mMAGL is 0.31 nM; at cMAGL, 0.4 nM; on rMAGL (setting [6]), 0.44 nM; at MAGL [3], 0.47 nM. For the same compound, the “labeling selectivity in ABPP (covalent probes)” value in data set [1] (mouse brain homogenates, broad range of concentrations) is “only selective irreversible labeling of the two MAGL isoforms”. The compound further showed a solubility (kinetic) in data set [2] of less than 1 µg/mL.

Consider `CN1/C(=C/C=C/C=C/C2=[N+](CCCCCC(=O)NCc3cn(CCOc4ccc(C(c5ccc(Cl)cc5)N5CCN(C(=O)OC(C(F)(F)F)C(F)(F)F)CC5)cc4)nn3)c3ccccc3C2(C)C)C(C)(C)c2ccccc21` (stereo not shown) [LEI-463], for which, at MAGL [4], the IC50 was roughly 10 nM.

Consider `O=C1NC2(CO1)CN(C(=O)N1CC3(CCC(CC4=C5C=CC=[N+]5[B-](F)(F)n5cccc54)CC3)C1)C2` [Compound 3], for which the IC50 was 557 nM in data set [5]; 0.96 nM on mMAGL; 3.86 nM at cMAGL; 3.54 ± 0.37 nM on rMAGL (SI Table 1, read-out: IC50 against purified MAGL ± SEM, Rat); 0.83 nM on MAGL [3]. Moreover, the kinetic solubility in [2] turned out to be 139 µg/mL (≈ 288 µM). For the same compound, at rMAGL, the “loss of potency against rat or cynomolgus monkey orthologs” value is listed as “less than 4 fold”.

In general, IC50 refers to the concentration that gives 50% inhibition. In general, solubility (kinetic) refers to the concentration staying in solution when a stock, usually in DMSO, is diluted into the medium.

The values are drawn from publication PMC11951083, “Highly Specific Miniaturized Fluorescent Monoacylglycerol Lipase Probes Enable Translational Research” (Journal of the American Chemical Society, 2025).
